Measured values as given in the NIST ThermoML archive (doi:10.1016/j.jct.2016.09.010).
± gives the expanded uncertainty stated by the source.

What was measured:
[1] = xn = mol fraction of the nth substance listed; settings: 100 kPa, Liquid; for speed of sound: Frequency=2 MHz, Linear variable-path acoustic interferometer; for mass density: Vibrating tube method
[2] = 100 kPa, Liquid; for speed of sound: Frequency=2 MHz, Linear variable-path acoustic interferometer; for mass density: Vibrating tube method

Structure (SMILES)	speed of sound ([1]; 303.15 K, x1 = 1)	mass density ([1]; 303.15 K, x1 = 1)	speed of sound ([1]; 308.15 K, x1 = 1)	mass density ([1]; 308.15 K, x1 = 1)	speed of sound ([1]; 313.15 K, x1 = 1)	mass density ([1]; 313.15 K, x1 = 1)	speed of sound ([1]; 318.15 K, x1 = 1)	mass density ([1]; 318.15 K, x1 = 1)	speed of sound ([2]; 303.15 K)	mass density ([2]; 303.15 K)	speed of sound ([2]; 308.15 K)	mass density ([2]; 308.15 K)	speed of sound ([2]; 313.15 K)	mass density ([2]; 313.15 K)	speed of sound ([2]; 318.15 K)	mass density ([2]; 318.15 K)	further results
CCOC(=O)C(C)O (stereo not drawn) [DL-ethyl lactate] + CCNc1ccccc1	1261.1 ± 2.5 m/s	1022.88 ± 2.2 kg/m3	1243.8 ± 2.5 m/s	1017.39 ± 2.1 kg/m3	1224.8 ± 2.5 m/s	1011.83 ± 2.1 kg/m3	1206.9 ± 2.5 m/s	1006.31 ± 2.1 kg/m3	–	–	–	–	–	–	–	–	–
CCOC(=O)C(C)O (stereo not drawn) [DL-ethyl lactate] + CNc1ccccc1	1261.1 ± 2.5 m/s	1022.88 ± 2.2 kg/m3	1243.8 ± 2.5 m/s	1017.39 ± 2.1 kg/m3	1224.8 ± 2.5 m/s	1011.83 ± 2.1 kg/m3	1206.9 ± 2.5 m/s	1006.31 ± 2.1 kg/m3	–	–	–	–	–	–	–	–	–
CCNc1ccccc1 [N-ethylaminobenzene]	–	–	–	–	–	–	–	–	1497 ± 1.7 m/s	952.41 ± 2 kg/m3	1481 ± 1.7 m/s	947.69 ± 2 kg/m3	1464 ± 1.7 m/s	942.95 ± 2 kg/m3	1448 ± 1.6 m/s	938.23 ± 2 kg/m3	–
CNc1ccccc1 [N-methylaniline]	–	–	–	–	–	–	–	–	1547 ± 1.7 m/s	978.2 ± 2 kg/m3	1526.9 ± 1.7 m/s	973.53 ± 2 kg/m3	1511 ± 1.7 m/s	969.92 ± 2 kg/m3	1491.4 ± 1.7 m/s	964.9 ± 2 kg/m3	–
Nc1ccccc1 [aniline]	–	–	–	–	–	–	–	–	1614 ± 1.7 m/s	1012.81 ± 2 kg/m3	1595 ± 1.7 m/s	1008.91 ± 2 kg/m3	1574.4 ± 1.7 m/s	1004.59 ± 2 kg/m3	1554.9 ± 1.7 m/s	1000.21 ± 2 kg/m3	–
Nc1ccccc1 [aniline] + CCOC(=O)C(C)O	–	–	–	–	–	–	–	–	–	–	–	–	–	–	–	–	speed of sound ([1]; 303.15 K, x2 = 0): 1614 ± 1.7 m/s; mass density ([1]; 303.15 K, x2 = 0): 1012.81 ± 2 kg/m3; speed of sound ([1]; 308.15 K, x2 = 0): 1595 ± 1.7 m/s; mass density ([1]; 308.15 K, x2 = 0): 1008.91 ± 2 kg/m3; speed of sound ([1]; 313.15 K, x2 = 0): 1574.4 ± 1.7 m/s; mass density ([1]; 313.15 K, x2 = 0): 1004.59 ± 2 kg/m3; speed of sound ([1]; 318.15 K, x2 = 0): 1554.9 ± 1.7 m/s; mass density ([1]; 318.15 K, x2 = 0): 1000.21 ± 2 kg/m3
